Data from patent publication US20210283163A1, “COMPOSITIONS AND METHODS FOR THE TREATMENT OF ACUTE AND CHRONIC PRURITIS” (Duke University, priority 2018, published 2021).

Legend:
DRG neurons = test: Calcium imaging in cultured DRG neurons of Pirt-GCaMP3 mice; assay type: cell-based, mouse; conditions: histamine 500 μM, CQ 1,000 μM, AITC 200 μM; for DRG neurons showing Ca2+ increase / responses: miR-711 50 μM, 544 neurons from 3 mice
Experimental: (§1) Primary Cultures of Mouse and Human Sensory Neurons. […] Cells were mechanically dissociated with a flame polished Pasteur pipette in the presence of 0.05% DNase I (Sigma).
(§2) Ca^2+ Imaging. […] The imaging buffer includes 140 mM NaCl, 10 mM D-(+)-Glucose, 1 mM MgCl2, 2 mM CaCl2, 5 mM KCl, 10 mM HEPES, pH=7.4, osmolarity=320 mOsm/L. Calcium signals were measured using green emitted light in a 3 s interval. Ca ^2+ signal amplitudes were presented as ΔF/F0=(Ft−F0)/F0 as ratio of fluorescence difference (Ft−F0) to basal value (F0). The average fluorescence intensity in the baseline period was taken as F0. Ca ^2+ imaging was also analyzed in HEK293-TRPA1 cell line after loading cells with […] fura2-AM (Invitrogen) for 40 min in the Ca^2+ imaging buffer. Ca^2+ imaging protocol was a ratio metric method with 340/380-nm wavelength light for dual excitation. Data were presented as ΔR/R0, determined as the fraction ΔR (Rt−R0) of the increase of a given ratio over baseline ratio (R0).

TG neurons = test: Calcium imaging in TG neurons of Pirt-GCaMP3 mice; assay type: cell-based, mouse; conditions: histamine 500 μM, CQ 1000 μM, AITC 200 μM; for TG neurons responding (calcium): miR-711 50 μM, 204 neurons
Experimental: as §1, §2

naive mice = assay type: in vivo, mouse; conditions: naive mice; for scratching (itch) after intradermal cheek injection / wiping (pain) after intradermal cheek injection: 1 mM, 5 μL
Experimental: (§3) Behavioral Assessment for Scratching (Itch) and Wiping (Pain). Mice were shaved on the cheek or nape after a brief anesthesia with isoflurane. Before experiments, mice were habituated in small plastic chambers (14×18×12 cm) daily for two days. The room temperature and humidity remained stable for all the experiments. […] After the injection, the number of scratches in 60 min was counted. A scratch was counted when a mouse lifted its hind paw to scratch the shaved region and returned the paw to the floor or to the mouth. A bout of wiping was defined as a continuous wiping movement with a forepaw directing at the area of the injection area (Shimada and LaMotte, Pain 2008, 139, 681-687). Scratching and wiping behavior was videoed for 30 min or 60 min using Sony HDR-CX610 camera. The video was subsequently played back offline and the numbers of scratches and wipes were quantified in a blinded manner.

mice = test: Back model: intradermal nape injection, scratching; assay type: in vivo, mouse; conditions: 1 mM, 10 μL
Experimental: as §3

hTRPA1 = hTRPA1 (Homo sapiens, UniProt O75762); test: Whole-cell patch clamp, inward currents in HEK293 cells expressing hTRPA1; assay type: cell-based; conditions: bath application; miRNAs and core sequence 10 μM, AITC 50 μM
hTRPA1, sequence (O75762 whole entry): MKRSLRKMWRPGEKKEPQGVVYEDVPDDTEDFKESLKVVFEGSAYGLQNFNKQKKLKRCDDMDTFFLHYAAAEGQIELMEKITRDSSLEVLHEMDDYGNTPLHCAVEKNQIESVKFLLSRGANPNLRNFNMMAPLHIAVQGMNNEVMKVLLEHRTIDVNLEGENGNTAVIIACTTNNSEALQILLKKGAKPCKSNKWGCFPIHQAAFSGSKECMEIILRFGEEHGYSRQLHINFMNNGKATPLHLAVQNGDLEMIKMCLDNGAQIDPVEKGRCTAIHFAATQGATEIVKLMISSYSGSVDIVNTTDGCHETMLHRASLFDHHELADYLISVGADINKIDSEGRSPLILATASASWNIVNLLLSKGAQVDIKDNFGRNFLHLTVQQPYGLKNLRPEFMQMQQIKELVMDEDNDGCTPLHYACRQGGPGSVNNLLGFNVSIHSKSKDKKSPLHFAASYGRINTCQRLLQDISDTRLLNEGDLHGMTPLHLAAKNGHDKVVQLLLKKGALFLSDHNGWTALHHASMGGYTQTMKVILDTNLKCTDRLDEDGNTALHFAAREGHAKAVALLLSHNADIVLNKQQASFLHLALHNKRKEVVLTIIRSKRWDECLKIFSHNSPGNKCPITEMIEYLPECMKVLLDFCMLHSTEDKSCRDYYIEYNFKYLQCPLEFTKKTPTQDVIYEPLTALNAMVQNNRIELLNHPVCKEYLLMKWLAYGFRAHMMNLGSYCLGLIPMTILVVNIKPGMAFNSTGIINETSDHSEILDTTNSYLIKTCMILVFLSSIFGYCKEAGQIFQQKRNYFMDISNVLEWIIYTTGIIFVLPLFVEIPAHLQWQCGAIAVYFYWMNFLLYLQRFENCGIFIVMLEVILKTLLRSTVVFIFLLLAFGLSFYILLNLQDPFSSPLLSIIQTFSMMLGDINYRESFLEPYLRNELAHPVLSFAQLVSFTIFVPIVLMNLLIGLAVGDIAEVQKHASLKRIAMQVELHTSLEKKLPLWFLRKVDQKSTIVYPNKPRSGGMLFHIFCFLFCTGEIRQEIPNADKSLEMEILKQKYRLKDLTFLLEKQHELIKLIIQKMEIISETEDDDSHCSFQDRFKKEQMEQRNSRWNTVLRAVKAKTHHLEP
Experimental: Cell Culture and Transfection. CD4^+ Myla cell line was cultured in RPMI 1640 media (GIBCO), supplemented with 2 mM Glutamine (GIBCO), 100 U/mL IL-2 (Sigma), 100 U/mL IL-4 (Sigma), and 10% human AB serum (Sigma). HuT 102 cell line was cultured in RPMI 1640 supplemented with pyruvate, HEPES, and 10% (v/v) fetal bovine serum (HyClone). HEK293-hTRPA1 stable cell line was cultured in MEM (GIBCO) containing 2 mM Glutamine, 4 μg/mL Blasticidin, 10% FBS (v/v). B16 and CHO cells were cultured in high glucose (4.5 g/L) Dulbecco's Modified Eagle's Medium (GIBCO) containing 10% (v/v) fetal bovine serum (GIBCO). Culture media were supplemented with 50 units/mL of penicillin and 50 μg/mL streptomycin, and cultures were maintained with 5% CO2 in 37° C. incubator. Transfection (2 μg cDNA) was performed with Lipofectamine™ 2000 Reagent (Invitrogen) at 80% confluency and the transfected cells were cultured in the same media for 48 hr before electrophysiological and biochemical studies.
Whole-Cell Patch Clamp Recordings in HEK293 Cells, CHO Cells, and DRG Neurons. Whole-cell patch clamp recordings were performed at room temperature using an Axopatch-200B amplifier (Axon Instruments) with a Digidata 1440B (Axon Instruments). In this study, we only examined small-diameter mouse DRG neurons (<25 μM) and small-diameter human DRG neurons (<55 μM). The patch pipettes were pulled from borosilicate capillaries (World Precision Instruments) using a P-97 Flaming/Brown micropipette puller (Sutter Instrument). Pipette resistance was 4-6 MΩ for whole-cell and outside-out recording. For inward current recordings in mouse and human DRG neurons, HEK293 cells, and CHO cells, the internal solution contains (in mM): 140 CsCl, 10 EGTA, 10 HEPES, and 2 Mg-ATP, adjusted to pH 7.3 with CsOH. Whole cell recordings were performed in an extracellular solution that contains (in mM): 140 NaCl, 5 KCl, 2 MgCl2, 10 HEPES, and 10 glucose, adjusted to pH 7.4 with NaOH and osmolarity to 300-310 mOsm. […] Action potential recordings were performed in small-diameter DRG neurons, with the following solutions: i) internal pipette solution contains: 126 mM K-gluconate, 10 mM NaCl, 1 mM MgCl2, 10 mM EGTA, 10 mM HEPES and 2 mM Na-ATP, adjusted to pH 7.4 with KOH and osmolarity to 295-300 mOsm), and ii) extracellular solution contains: 140 mM NaCl, 5 mM KCl, 2 mM MgCl2, 2 mM CaCl2, 10 mM HEPES, 10 mM glucose, adjusted to pH 7.4 with KOH.

CTCL mice = test: Mouse CTCL xenograft model of chronic itch; assay type: in vivo; conditions: given 20 days after Myla cell inoculation; hsa-miR-711 inhibitor 100 μM, HC030031 200 μM, A967079 50 μM, peptides 2 mM
Experimental: Mouse CTCL Xenograft Model of Chronic Itch. We developed a murine xenograft model of cutaneous T cell lymphoma (CTCL) using immune-deficient mice (NOD.CB17-Prkdcscid, 8-10 weeks old, male). CD4^+ MyLa cell line was purchased from Sigma (Ca #95051032). The cell line was established from a plaque biopsy of a person with mycosis fungoides stage II by inclusion of IL-2 and IL-4 in the culture medium. CTCL was generated via intradermal injection of CD4^+ Myla cells (1×10^5 cells/μl, 100 μL) on the nape of the neck. Tumor growth was assessed for 40 days by measurements of tumor diameters.
as §3
Generation of Myla Stable Cell Line Expressing miR-711 Inhibitor. CD4^+ Myla cells were plated at a density of 2×10^5 cells/mL in 2 mL culture media in 6-well plates. For each well, 20 μL of the MISSION Lenti microRNA Inhibitor (hsa-miR-711) lentivirus (Sigma) with a titer of 2.6×10^7 Tu/mL were added. Cell mixtures were incubated at 37° C. for 48 hr, washed with PBS three times, and re-suspended in fresh culture media, and 24 hr later, 1 μg/mL puromycin was added to the cells to select stably transduced cell populations. We tried to grow and passage the cells as much as necessary (usually 3 days) and maintained selection pressure by keeping 1 μg/mL puromycin in the medium. After 4 weeks, a large number of the cells were killed; the remaining cells retained the expression of the plasmid, which stably integrates into the genome of the targeted cells. These cells were used for inoculation to generate the CTCL model for testing the effects of miR-711 inhibitor on chronic itch and tumor growth.

For NCCc1c[nH]cn1 [histamine], the “miR-711-responsive DRG neurons that also responded” value (DRG neurons) was 61.9%, the “DRG neurons showing Ca2+ increase / responses” value (DRG neurons) was 5.5% and the “miR-711-responsive TG neurons that also responded” value (TG neurons) was 52%. For the same compound, the “TG neurons responding (calcium)” value (TG neurons) was 6.9%.

“m1: mutant of miR-711: aaaacccggggagagauguaag (SEQ ID NO: 11) (AAAACCCGGGGAGAGAUGUAAG; listed as RNA, chemistry not given here)” was tested, and the “scratching (itch) after intradermal cheek injection” value (naive mice) was “marked reduction in scratching”.

In the case of “miR-155: mmu-miR-155: uuaaugcuaauugugauaggggu (SEQ ID NO: 7) (UUAAUGCUAAUUGUGAUAGGGGU; listed as RNA, chemistry not given here)”, the “wiping (pain) after intradermal cheek injection” value (naive mice) is reported as “Neither did” and the “scratching after intradermal injection on the nape of neck” value (mice) is reported as “no effects”.

For “GGGACCC: mmu-miR-711 core: gggaccc (SEQ ID NO: 1) (listed as RNA, chemistry not given here)”, the “scratching after intradermal injection of 7-nucleotide oligos” value (naive mice) was “sufficient to elicit scratching”, the “wiping after intradermal injection of 7-nucleotide oligos” value (naive mice) was “not wiping” and the inward currents (hTRPA1) was “inward currents induced”.

In the case of “miR-326: mmu-miR-326: gggggcagggccuuugugaaggcg (SEQ ID NO: 8) (GGGGGCAGGGCCUUUGUGAAGGCG; listed as RNA, chemistry not given here)”, the “wiping (pain) after intradermal cheek injection” value (naive mice) is reported as “Neither did” and the “scratching after intradermal injection on the nape of neck” value (mice) is reported as “no effects”.

“m2: mutant of miR-711: gggaaaaggggagagauguaag (SEQ ID NO: 12) (GGGAAAAGGGGAGAGAUGUAAG; listed as RNA, chemistry not given here)” was tested, and the “scratching (itch) after intradermal cheek injection” value (naive mice) was “marked reduction in scratching”.

For “AAAAAAA: Mmu-miR-711 mutant: aaaaaaa (SEQ ID NO: 17) (listed as RNA, chemistry not given here)”, the “scratching after intradermal injection of 7-nucleotide oligos” value (naive mice) was “did not affect” and the “wiping after intradermal injection of 7-nucleotide oligos” value (naive mice) was “did not affect”.

In the case of CC(C)c1ccc(NC(=O)Cn2cnc3c2c(=O)n(C)c(=O)n3C)cc1 [HC30031, 2-(1,3-Dimethyl-2,6-dioxo-1,2,3,6-tetrahydro-7H-purin-7-yl)-N-(4-isopropylphenyl)acetamide], the “effect on CTCL-evoked chronic itch” value (CTCL mice) is reported as “suppressed”.

For CCN(CC)CCCC(C)Nc1ccnc2cc(Cl)ccc12 (centres unmarked) [CQ, chloroquine], the “miR-711-responsive DRG neurons that also responded” value (DRG neurons) was 66.7%, the “DRG neurons showing Ca2+ increase / responses” value (DRG neurons) was 5.1% and the “miR-711-responsive TG neurons that also responded” value (TG neurons) was 76%. For the same compound, the “TG neurons responding (calcium)” value (TG neurons) was 9.3%.
